Measurements published in US12629410B2, “Multi-antigenic peptide mimics of gonococcal lipo-oligosaccharide (LOS) epitopes” (priority 2019, dated 2026).
“And” between values parts separate entries of the source, which are not always exact repeats. Equal entries are not always repeated. “Also recorded” adds a separate entry of the source. Bridges are numbered along the chain shown (N, C = ends).

Tests used:
15253 ΔlgtG LOS = test: ELISA of immune sera against 2C7-negative LOS (specificity); type: in vivo, N. gonorrhoeae; conditions: sera of mice immunized with TMCP2 + GLA-SE
Method: Microtiter wells were coated with LOS purified from 15253 or 15253 ΔlgtG (80 μg/ml) in PBS as described previously. Serial dilutions of immune sera were dispensed into wells and bound anti-LOS Ab was disclosed with anti-mouse IgG conjugated to alkaline phosphatase. A standard curve for mouse IgG was generated by coating wells with anti-mouse IgG (Sigma) and pure mouse IgG (Sigma) also as described previously.

N. gonorrhoeae FA1090 = test: Serum bactericidal assay, immune mouse sera plus human complement; type: cell-based; conditions: for immune sera showing >50% killing: IgM-depleted sera at 1:30 (3.3%); for immune sera showing <50% survival (>50% killing): intact sera at 3.3% (1:30)
Method: […] Sera from mice diluted 1:1 in PBS was mixed with anti-mouse IgM agarose (Sigma; binding capacity ≥0.4 mg/ml) (1 volume of packed agarose to 1 volume of serum diluted 1:1) in a 2.0 ml microspin filter column (Costar) with a pore size of 0.22 μM) for 15 min at 22° C. Filter-sterilized IgM depleted sera were collected by centrifugation of the mixture at 1000 g for 2 min and heat-inactivated (56° C. for 30 min) to eliminate intrinsic complement activity in mouse serum prior to use in serum bactericidal assays where human complement was substituted.
(§1) Serum bactericidal assays were performed. Bacteria that had been harvested from an overnight culture on chocolate agar plates were repassaged onto fresh chocolate agar and allowed to grow for 6 h at 37° C. in an atmosphere containing 5% CO2. Bacteria were then suspended in HBSS containing 1 mM MgCl2 and 0.15 mM CaCl2) (HBSS++) for use in serum bactericidal assays. Briefly, about 2000 colony forming units (CFUs) of N. gonorrhoeae FA090 were incubated with serial dilutions of immune mouse sera (heat-inactivated and IgM-depleted) in the presence or absence of 20% normal human serum (NHS) as a source of human complement. Serum bactericidal assays with strain MS11 were performed with IgG and IgM depleted NHS (Human complement; Pel-Freez) because this strain is susceptible to killing by NHS. Final volumes of bactericidal reaction mixtures were 150 μl. Aliquots of 25-μl reaction mixtures were plated onto chocolate agar in duplicate at the beginning of the assay (to) and again after incubation at 37° C. for 30 min (t30). Survival was calculated as the number of viable colonies at t30 relative to t0.

[1] = tested on: N. gonorrhoeae strain 15253; test: Serum bactericidal activity of antisera raised against tetra-MAP candidates; type: cell-based; conditions: post-dose 5 IgM-depleted antiserum 1:3, 17% NHS; Sigma MPL adjuvant; compared with TMCP3, TMCP4
Method: See Tables 1A-1K for a description of peptides. Post-dose 5 mouse anti-serum (IgM depleted) was tested against N. gonorrhoeae strain 15253 at a final dilution of 1:3 in the presence of 17% normal human serum (NHS) as the complement source. Y-axis, % killing ([CFU at t0−CFU at t30/CFU at t0]×100).
as §1

Substance: [(CH2-CO-GPIPVLDENGLFAPGPC)-K-OH]4 ({CH2CO}-GPIPVLDENGLFAPGPCK-OH; thioether N-17; also: tetrameric MAP) [TMCP2]
- IgG reactivity of immune sera with 15253 ΔlgtG LOS (15253 ΔlgtG LOS): non-reactivity; also recorded: no IgG binding
- killing of FA1090, one serum sample (N. gonorrhoeae FA1090; IgM-depleted post-dose 3 serum, 1:6 (16.7%), 50 μg/dose group): 47%
- immune sera showing >50% killing (N. gonorrhoeae FA1090; 100 μg/dose group): Three of five
- immune sera showing >50% killing (N. gonorrhoeae FA1090; 200 μg/dose group): three of four
- Survival in intact immune serum (N. gonorrhoeae FA1090; Table 4, TMCP2 200 μg/dose + GLA-SE, immune serum 16.7% (1/6), 16.7% NHS): 0.00% and 6.19%
- killing of FA1090 by intact immune sera, all sera (N. gonorrhoeae FA1090; final dilution 1:6 (16.7% immune serum), TMCP2 50, 100, 200 μg/dose + GLA-SE): > 50%
- immune sera showing <50% survival (>50% killing) (N. gonorrhoeae FA1090; 50 μg/dose group): Four of 5
- immune sera showing <50% survival (>50% killing) (N. gonorrhoeae FA1090; 100 μg/dose group): 3 of 5
- immune sera showing <50% survival (>50% killing) (N. gonorrhoeae FA1090; 200 μg/dose group): 3 of 4
- complement-dependent bactericidal activity of antisera [1]: maximal
